# Experimental data taken from the supplement of paper PMC10307832.
# What was measured:
# Experiment in all cases: relative viability (nuclei count vs DMSO), 5 days (fraction); higher = more cells survive
# RERF-LC-KJ = test system: RERF-LC-KJ
# In short: (§1)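 Lung cancer cell lines were pin-tool dosed in 1536-well plates on the day after seeding, with either a lone drug or a fixed anchor-drug dose plus five library-drug doses (not always all listed) in √10 steps. Nuclei were counted on 4× images after 5 days. Relative viability is the ratio of treated-well to vehicle-well nuclei counts, with each value a median of duplicate plates.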
# CAL-12T = test system: CAL-12T
# In short: as §1
# NCI-H1437 = test system: NCI-H1437
# In short: as §1
# PC-3 [JPC-3] = test system: PC-3 [JPC-3]
# In short: as §1
# UMC-11 = test system: UMC-11
# In short: as §1
# NCI-H596 = test system: NCI-H596
# In short: as §1
# SK-LU-1 = test system: SK-LU-1
# In short: as §1
# NCI-H1563 = test system: NCI-H1563
# In short: as §1
# NCI-H1734 = test system: NCI-H1734
# In short: as §1
# NCI-H1755 = test system: NCI-H1755
# In short: as §1
# EMC-BAC-2 = test system: EMC-BAC-2
# In short: as §1
# HOP-62 = test system: HOP-62
# In short: as §1
# NCI-H441 = test system: NCI-H441
# In short: as §1
# NCI-H1650 = test system: NCI-H1650
# In short: as §1
# NCI-H3122 = test system: NCI-H3122
# In short: as §1
# HARA = test system: HARA
# In short: as §1
# LK-2 = test system: LK-2
# In short: as §1
# NCI-H1651 = test system: NCI-H1651
# In short: as §1
# NCI-H2347 = test system: NCI-H2347
# In short: as §1
# COR-L23 = test system: COR-L23
# In short: as §1
# HCC-366 = test system: HCC-366
# In short: as §1
smiles,measurement,setting,value
CN1CCN(CCOc2cc(OC3CCOCC3)c3c(Nc4c(Cl)ccc5c4OCO5)ncnc3c2)CC1 [Saracatinib] + Nc1nc2[nH]cc(CCc3ccc(C(=O)N[C@@H](CCC(=O)O)C(=O)O)cc3)c2c(=O)[nH]1 [Pemetrexed] (partner 0.2 µM),relative viability,RERF-LC-KJ; first compound 0.02 µM,0.477
same,relative viability,RERF-LC-KJ; first compound 0.2 µM,0.463
same,relative viability,RERF-LC-KJ; first compound 0.6325 µM,0.47
same,relative viability,RERF-LC-KJ; first compound 2 µM,0.441
same,relative viability,CAL-12T; first compound 0.02 µM,1.27
same,relative viability,CAL-12T; first compound 0.2 µM,1.15
same,relative viability,CAL-12T; first compound 0.6325 µM,1.33
same,relative viability,CAL-12T; first compound 2 µM,1.18
same,relative viability,NCI-H1437; first compound 0.02 µM,0.329
same,relative viability,NCI-H1437; first compound 0.2 µM,0.247
same,relative viability,NCI-H1437; first compound 0.6325 µM,0.277
same,relative viability,NCI-H1437; first compound 2 µM,0.286
same,relative viability,PC-3 [JPC-3]; first compound 0.02 µM,1.04
same,relative viability,PC-3 [JPC-3]; first compound 0.2 µM,0.709
same,relative viability,PC-3 [JPC-3]; first compound 0.6325 µM,0.656
same,relative viability,PC-3 [JPC-3]; first compound 2 µM,0.469
same,relative viability,UMC-11; first compound 0.02 µM,0.809
same,relative viability,UMC-11; first compound 0.2 µM,0.699
same,relative viability,UMC-11; first compound 0.6325 µM,0.898
same,relative viability,UMC-11; first compound 2 µM,0.607
same,relative viability,NCI-H596; first compound 0.02 µM,0.522
same,relative viability,NCI-H596; first compound 0.2 µM,0.49
same,relative viability,NCI-H596; first compound 0.6325 µM,0.471
same,relative viability,NCI-H596; first compound 2 µM,0.479
same,relative viability,SK-LU-1; first compound 0.02 µM,0.918
same,relative viability,SK-LU-1; first compound 0.2 µM,0.868
same,relative viability,SK-LU-1; first compound 0.6325 µM,0.654
same,relative viability,SK-LU-1; first compound 2 µM,0.557
same,relative viability,NCI-H1563; first compound 0.02 µM,0.946
same,relative viability,NCI-H1563; first compound 0.2 µM,0.576
same,relative viability,NCI-H1563; first compound 0.6325 µM,0.742
same,relative viability,NCI-H1563; first compound 2 µM,0.592
same,relative viability,NCI-H1734; first compound 0.02 µM,0.418
same,relative viability,NCI-H1734; first compound 0.6325 µM,0.414
same,relative viability,NCI-H1734; first compound 2 µM,0.4
same,relative viability,NCI-H1755; first compound 0.02 µM,0.465
same,relative viability,NCI-H1755; first compound 0.2 µM,0.409
same,relative viability,NCI-H1755; first compound 0.6325 µM,0.424
same,relative viability,NCI-H1755; first compound 2 µM,0.394
same,relative viability,EMC-BAC-2; first compound 0.02 µM,0.456
same,relative viability,EMC-BAC-2; first compound 0.2 µM,0.373
same,relative viability,EMC-BAC-2; first compound 0.6325 µM,0.44
same,relative viability,EMC-BAC-2; first compound 2 µM,0.442
same,relative viability,HOP-62; first compound 0.02 µM,0.377
same,relative viability,HOP-62; first compound 0.2 µM,0.33
same,relative viability,HOP-62; first compound 0.6325 µM,0.332
same,relative viability,HOP-62; first compound 2 µM,0.375
same,relative viability,NCI-H441; first compound 0.02 µM,0.28
same,relative viability,NCI-H441; first compound 0.2 µM,0.238
same,relative viability,NCI-H441; first compound 0.6325 µM,0.316
same,relative viability,NCI-H441; first compound 2 µM,0.272
same,relative viability,NCI-H1650; first compound 0.02 µM,0.343
same,relative viability,NCI-H1650; first compound 0.2 µM,0.357
same,relative viability,NCI-H1650; first compound 0.6325 µM,0.318
same,relative viability,NCI-H1650; first compound 2 µM,0.307
same,relative viability,NCI-H3122; first compound 0.02 µM,0.195
same,relative viability,NCI-H3122; first compound 0.2 µM,0.169
same,relative viability,NCI-H3122; first compound 0.6325 µM,0.197
same,relative viability,NCI-H3122; first compound 2 µM,0.169
same,relative viability,HARA; first compound 0.02 µM,0.268
same,relative viability,HARA; first compound 0.2 µM,0.266
same,relative viability,HARA; first compound 0.6325 µM,0.191
same,relative viability,HARA; first compound 2 µM,0.213
same,relative viability,LK-2; first compound 0.02 µM,0.32
same,relative viability,LK-2; first compound 0.2 µM,0.199
same,relative viability,LK-2; first compound 0.6325 µM,0.205
same,relative viability,LK-2; first compound 2 µM,0.161
same,relative viability,NCI-H1651; first compound 0.02 µM,0.633
same,relative viability,NCI-H1651; first compound 0.2 µM,0.566
same,relative viability,NCI-H1651; first compound 0.6325 µM,0.621
same,relative viability,NCI-H1651; first compound 2 µM,0.581
same,relative viability,NCI-H2347; first compound 0.02 µM,0.435
same,relative viability,NCI-H2347; first compound 0.2 µM,0.421
same,relative viability,NCI-H2347; first compound 0.6325 µM,0.464
same,relative viability,NCI-H2347; first compound 2 µM,0.429
same,relative viability,COR-L23; first compound 0.02 µM,0.211
same,relative viability,COR-L23; first compound 0.2 µM,0.2
same,relative viability,COR-L23; first compound 0.6325 µM,0.176
same,relative viability,COR-L23; first compound 2 µM,0.184
same,relative viability,HCC-366; first compound 0.02 µM,0.162
same,relative viability,HCC-366; first compound 0.2 µM,0.17
same,relative viability,HCC-366; first compound 0.6325 µM,0.189
same,relative viability,HCC-366; first compound 2 µM,0.17
